Series [1] concerns the target T1, rat RBC AChE (Rattus norvegicus, UniProt P37136).
T1 construct: contained 0.005 mg/ml erythrocyte ‘ghost’ membrane protein; tissue BioIVT; host or cells: rat blood; erythrocyte 'ghost' membranes (Sprague-Dawley rats)
In words: In vitro inhibition of rat erythrocyte (RBC) AChE. The class given is biochemical. As for the experimental part:
To perform reverse dosimetry of in vitro AChE inhibition by profenofos, first the in vitro AChE activity in the absence or presence of increasing concentrations of profenofos was determined. For humans, commercially available recombinant AChE was used. For rats, no commercially available recombinant AChE was available, so rat AChE was obtained from rat blood as described below.
AChE activity was expressed as enzyme activity (percent of control). The concentration of profenofos that produced a 50% decrease in AChE activity (IC50) was determined from best‐fit plots of the mean (± SD) percentages of inhibition vs. the 10log logarithm of profenofos concentrations using GraphPad Prism 5, version 5.04 (San Diego, California, USA) equation: Y=100/(1+10^(X-LogIC50)).
Rat blood samples were processed according to a method reported by Larsen et al. ([2019]) with a few modifications to isolate the extrinsic membrane bound AChE. Briefly, the blood sample (2 ml) was centrifuged at 3000g for 15 min to separate plasma and cells. […] Aliquots of erythrocyte ‘ghost’ membrane preparations were used for protein measurement using the Pierce™ BCA Protein Assay Kit (Thermofisher) with BSA as standard for quantification (Lowry et al. [1951]), and for AChE activity assessment.
The effect of profenofos on rat AChE activity was assessed as described above for human recombinant AChE, with a few modifications. […]

Series [2] deals with rat. The settings on record: oral administration, ref JMPR [2007]; cited from earlier work.
In series [3] the test system is brain cholinesterase. The settings on record: based on NOAEL in a dog study, brain cholinesterase inhibition; ref EFSA [2019]; cited from earlier work.
Series [4] concerns AChE. In words: PBK modeling-facilitated reverse dosimetry and BMD modelling of predicted AChE inhibition in rats. On the set-up: species or system rat. An excerpt: In the present study, it was assumed that in vivo dose-dependent AChE inhibition (in blood) depends on the maximum concentration (Cmax) of profenofos reached in the blood. For adequate PBK modeling-facilitated reverse dosimetry, the active (unbound) concentration of a test chemical in the in vitro test system should be linked to the in vivo freely available chemical at the target site. This is important since it is assumed that it is the fraction unbound that causes the effect (AChE inhibition). In the in vitro incubations, a very low concentration of BSA (0.1 mg/mL) is present. Heilmair et al. ([2008]) reported that with such low BSA concentrations, the free concentration of chlorpyrifos oxon is not affected. Furthermore, Rosenfeld and Sultatos ([2006]) found no evidence of binding of paraoxon by BSA even at a higher concentration (1 mg/ml) during incubations. Based on these observations, no significant effect on the free fraction of profenofos in the in vitro AChE inhibition studies is expected, which corroborated with estimations on profenofos binding in the in vitro incubations with help of the online simcyp tool (https://www.certara.com/software/pbpk-modeling-and-simulation/).
By calculating with the PBK model, the external dose required to reach (as unbound Cmax) the concentrations applied in the in vitro test, each in vitro concentration was translated into an in vivo dose. In this way, the concentration–response curves for rat and human AChE inhibition were converted into in vivo dose–response curves for profenofos-induced AChE inhibition in rats and humans, respectively.
To evaluate the performance of the PBK modeling-facilitated reverse dosimetry approach to predict in vivo AChE inhibition, the predicted dose–response curve for rat AChE inhibition upon exposure to profenofos was compared with available in vivo data on AChE inhibition in rats (JMPR [2007]). […]

For series [5], the system named is AChE of human erythrocytes. The settings on record: freshly obtained human erythrocytes; ref Das and Jamil [2006]; read-out: IC50 AChE inhibition; cited from earlier work.

T1 sequence (P37136 other isoform, or with tags, fused parts or gaps): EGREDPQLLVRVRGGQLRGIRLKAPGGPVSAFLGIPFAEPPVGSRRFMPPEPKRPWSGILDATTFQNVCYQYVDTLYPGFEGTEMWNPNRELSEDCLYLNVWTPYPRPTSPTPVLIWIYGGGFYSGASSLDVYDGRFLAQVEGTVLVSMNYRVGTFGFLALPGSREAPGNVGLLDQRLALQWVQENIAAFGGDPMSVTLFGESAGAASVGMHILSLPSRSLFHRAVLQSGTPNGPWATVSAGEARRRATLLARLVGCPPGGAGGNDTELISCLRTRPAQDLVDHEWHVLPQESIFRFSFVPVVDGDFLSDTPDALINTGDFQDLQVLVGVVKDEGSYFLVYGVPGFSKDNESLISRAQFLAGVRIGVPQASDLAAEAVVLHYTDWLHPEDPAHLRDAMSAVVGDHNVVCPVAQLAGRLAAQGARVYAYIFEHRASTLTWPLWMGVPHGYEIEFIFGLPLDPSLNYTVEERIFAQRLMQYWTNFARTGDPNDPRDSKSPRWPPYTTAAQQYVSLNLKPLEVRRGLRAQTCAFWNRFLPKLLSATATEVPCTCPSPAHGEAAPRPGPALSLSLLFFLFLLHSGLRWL

With `CCCSP(=O)(OCC)Oc1ccc(Br)cc1Cl` (stereo not shown) [profenofos, O-(4-bromo-2-chlorophenyl) O-ethyl S-propyl phosphorothioate], the IC50 in series [1] is 312 nM. In series [2], the median lethal dose (LD50) was 358 to 1178 mg/kg. The ARfD in series [3] was 0.005 mg/kg bw. In series [4], the “JMPR NOAEL relative to BMDL10 from predicted rat dose-response data” value was 200 fold, the “Predicted rat BMDL10 relative to EFSA ARfD” value is given as ~ 100 fold and the “US EPA BMDL10 relative to BMDL10 from predicted rat dose-response data” value was 4 times. Further, the IC50 in series [5] was 350 nM.

The term IC50 denotes the concentration that inhibits the measured activity by half. Usually LD50 stands for the dose at which mortality reaches 50%.

The values above are taken from article PMC8032624, “Prediction of dose-dependent in vivo acetylcholinesterase inhibition by profenofos in rats and humans using physiologically based kinetic (PBK) modeling-facilitated reverse dosimetry” (Archives of Toxicology, 2021).
